Laboratory results: patent publication US20090274773A1, “ANTIPROLIFERATIVE COMBINATION COMPRISING CYC-682 AND A CYTOTOXIC AGENT” (Cyclacel Limited, priority 2005, published 2009)
Read-outs that look alike come from different tables or passages of the source.

Key:
Assay type in all cases: cell-based, human
IGROV1 = assay: MTT growth inhibition assay, single agent; details: read-out: Antiproliferative effects IC50s (MTT assay)
Description: (§1) All cell lines were obtained from the ATCC (Rockville, Md.). Cells were grown as monolayers in RPMI medium supplemented with 10% fetal calf serum (Invitrogen, Cergy-Pontoise, France), 2 mM glutamine, 100 units/ml penicillin and 100 μg/ml streptomycin. All cells were split twice a week using trypsin/EDTA (0.25% and 0.02%, respectively; Invitrogen, Cergy-Pontoise, France) and seeded at a concentration of 2.5×10^4 cells/ml. All cell lines were tested regularly for Mycoplasma contamination by PCR using a Stratagene kit (La Jolla, Calif.).
(§2) The MTT assay was carried out as described previously (Hansen M B, Nielsen S E, Berg K. Re-examination and further development of a precise and rapid dye method for measuring cell growth/cell kill. J Immunol Methods. 1989 May 12; 119(2):203-10). In brief, cells were seeded in 96-well tissue culture plates at a density of 2×10^3 cells/well. Cell viability was determined after a 120-hour incubation, by the calorimetric conversion of yellow, water-soluble tetrazolium MTT (3-[4,5-dimethylthiazol-2-yl]-2,5-diphenyltetrazolium bromide; Sigma, Saint-Quentin Fallavier, France), into purple, water-insoluble formazan. This reaction is catalyzed by mitochondrial dehydrogenases and is used to estimate the relative number of viable cells (Mosmann, T, Rapid calorimetric assay for cellular growth and survival: application to proliferation and cytotoxicity assays. J Immunol Methods. 1983 Dec. 16; 65 (1-2):55-63). Cells were incubated with 0.4 mg/ml MTT for 4 hours at 37° C. After incubation, the supernatant was discarded, the cell pellet was resuspended in 0.1 ml of DMSO and the absorbance was measured at 560 nm using a microplate reader (Dynatech, Michigan). Wells with untreated cells or with drug-containing medium without cells were used as positive and negative controls, respectively. Growth inhibition curves were plotted as a percentage of untreated control cells.
(§3) The cells were seeded at 2×10^3 cells/well in 96-well plates and treated 24 hours later with increasing concentrations of CYC682. After incubation times of 1 hour, 24 hours or 48 hours, the cells were washed and post-incubated in drug-free medium for 72 hours. Growth inhibition was then determined by the MTT assay.

MCF7 = assay: MTT growth inhibition assay, single agent; details: 24 hours exposure, read-out: Antiproliferative effects IC50s (MTT assay)
Description: as §1, §2, §3

HT29 = assay: MTT growth inhibition assay, single agent; details: read-out: Antiproliferative effects IC50s (MTT assay)
Description: as §1, §2, §3

HOP92 = assay: MTT growth inhibition assay, single agent; details: read-out: Antiproliferative effects IC50s (MTT assay)
Description: as §1, §2, §3

COLO205 = assay: MTT growth inhibition assay, single agent; details: read-out: Antiproliferative effects IC50s (MTT assay)
Description: as §1, §2, §3

HCT116 = assay: MTT growth inhibition assay, single agent; details: read-out: Antiproliferative effects IC50s (MTT assay)
Description: as §1, §2, §3

HCC2998 = assay: MTT growth inhibition assay, single agent; details: read-out: Antiproliferative effects IC50s (MTT assay)
Description: as §1, §2, §3

MDA-MB-435 = assay: MTT growth inhibition assay, single agent; details: 24 hours exposure, read-out: Antiproliferative effects IC50s (MTT assay)
Description: as §1, §2, §3

OVCAR1 = assay: MTT growth inhibition assay, single agent; details: 24 hours exposure, read-out: Antiproliferative effects IC50s (MTT assay)
Description: as §1, §2, §3

HOP62 = assay: MTT growth inhibition assay, single agent; details: read-out: Antiproliferative effects IC50s (MTT assay)
Description: as §1, §2, §3

HCT116 cancer cell line = assay: CYC682 drug-combination study (MTT, Chou and Talalay combination index, isobolograms); details: HCT116
Description: (§4) For simultaneous drug exposure, cells were seeded at 2×10^3 cells/well in 96-well plates and treated 24 hours later with increasing concentrations of CYC682 alone or with various concentrations of another drug corresponding to the IC20, IC40 or IC60 values. After approximately four doubling times (120 hours), the growth inhibitory effect was measured by the MTT assay.
(§5) Cells were seeded at 2×10^3 cells/well in 96-well plates and allowed to grow for 24 hour. Cells were then exposed to various concentrations of the first drug for 1 hour/24 hours/48 hours, the drug was removed, the cells were washed and the second drug was added. After additional drug exposure, the second drug was removed, the cells were washed and incubated in drug-free medium for 72 hours. Growth inhibition was then determined by the MTT assay.
(§6) Effects of drug combinations were evaluated using the Chou and Talalay method which is based on the median-effect principle (Chou T C, Talalay P. Quantitative analysis of dose-effect relationships: the combined effects of multiple drugs or enzyme inhibitors. Adv Enzyme Regul. 1984; 22:27-55). […] On the basis of the slope of the curve for each drug in a combination, it can be determined whether the drugs have mutually nonexclusive effects (e.g., independent or interactive modes of action).
(§7) The combination index (CI) is then determined by the equation:
(§8) CI=[(C)1/(Cx)1]+[(C)2/(Cx)2]+[α(C)1(C)2/(Cx)1(Cx)2],
(§9) where (Cx)1 is the concentration of drug 1 required to produce an x percent effect of that drug alone, and (C)1, the concentration of drug 1 required to produce the same x percent effect in combination with (C)2. If the mode of action of the drugs is mutually exclusive or nonexclusive, then α is 0 or 1, respectively. CI values will be calculated with this equation using different values of fa (i.e., for different degrees of cell growth inhibition). CI values of <1 indicate synergy, the value of 1 indicates additive effects, and values >1 indicate antagonism. Data were analyzed on an IBM-PC computer using concentration-effect analysis for microcomputer software (Biosoft, Cambridge, UK). For statistical analysis and graphs we will use Instat and Prism software (GraphPad, San Diego, USA). The dose-effect relationships for the drugs tested, alone or in paired combinations, were subjected to median-effect plot analysis to determine their relative potency (IC50), shape (m), and conformity (r) in each selected cell line. As stated above, the IC50 and m values were respectively used to calculate synergism and antagonism on the basis of the CI equation. Results were expressed as the mean±standard deviation of at least 3 experiments performed in duplicate. In each experiment, cells were exposed to the paired combinations for 48 hours as described above. Means and standard deviations were compared using Student's t-test (two-sided p value).
(§10) The effect of sequential and simultaneous exposure (FIG. 2) to CYC682 with oxaliplatin, doxorubicin, docetaxel and gemcitabine was studied in two sensitive colon cancer cell lines—COLO205 and HCT116 using combination indices that represent an affected fraction for the concentration of drugs corresponding to IC50 as previously described by Chou and Talalay.

COLO205 cancer cell line = assay: as above; details: COLO205
Description: as §4, §5, §6, §7, §8, §9, §10

NSCLC cell line H1299 = assay: CNDAC combinations (alamar blue, Calcusyn Combination Index)
Description: Experiments in the NSCLC cell lines H1299 or RERF-LC-MA were performed in 96-well plates, with cells seeded at a density of 3,000/well, in DMEM containing 10% (v/v) FCS. Stock solutions of all drugs were made up in dimethylsulfoxide (DMSO), with the exception of gemcitabine, which was dissolved in 0.9% (w/v) sterile saline solution.
For experimental assessment of potential synergistic interactions, the concomitant treatment regime involved simultaneous treatment of cells with CNDAC and the other agent under investigation for 72 h, alongside suitable controls of cells treated with the individual compounds alone for 72 hr. In the sequential treatment regimes, one drug was added to the cells 2 h after plating, and left for 24 h. Media was then aspirated, replaced with fresh media containing the second drug and incubated for 72 h. The two individual treatment controls for the sequential treatment regime involved substituting one of the drug treatments with drug-free media. […] Drug interactions were analysed using the Calcusyn software package (BioSoft, Cambridge, U.K.) described below.

[1] = CYC682 given prior to named agent
[2] = named agent given prior to CYC682
[3] = Homo sapiens, IGROV-1, 24 hours exposure
[4] = Homo sapiens, HT-29, 24 hours exposure
[5] = Homo sapiens, HOP-92, 24 hours exposure
[6] = Homo sapiens, COLO 205, 24 hours exposure
[7] = Homo sapiens, HCT-116, 24 hours exposure
[8] = Homo sapiens, HCC 2998, 24 hours exposure
[9] = Homo sapiens, HOP-62, 24 hours exposure
[10] = named agent in combination with CNDAC, H1299, simultaneous treatment 72 h

## O=C(O)C(=O)O.[NH-][C@@H]1CCCC[C@H]1[NH-].[Pt+2] [Oxaliplatin]
IGROV1; 24 hours exposure
  IC50: 107 ± 21 µM
MCF7
  IC50: 35 ± 7 µM
HT29; 24 hours exposure
  IC50: 60 ± 12 µM
HOP92; 24 hours exposure
  IC50: 1.4 ± 0.2 µM
COLO205; 24 hours exposure
  IC50: 8 ± 1.6 µM
HCT116; 24 hours exposure
  IC50: 20 ± 4 µM
HCC2998; 24 hours exposure
  IC50: 4 ± 1.4 µM
MDA-MB-435
  IC50: 37 ± 21 µM
OVCAR1
  IC50: 50 ± 10 µM
HOP62; 24 hours exposure
  IC50: 200 ± 40 µM
HCT116 cancer cell line; [1]
  Interaction with CYC682 (isobologram): synergistic activity
HCT116 cancer cell line; [2]
  Interaction with CYC682 (isobologram): synergistic activity
COLO205 cancer cell line; [1]
  Interaction with CYC682 (isobologram): synergy

## O=c1[nH]cc(F)c(=O)[nH]1 [5-FU, 5-fluorouracil]
IGROV1; [3]
  IC50: 29 ± 1 µM
MCF7; Homo sapiens
  IC50: 10 ± 1 µM
HT29; [4]
  IC50: 24 ± 1 µM
HOP92; [5]
  IC50: 11 ± 1 µM
COLO205; [6]
  IC50: 240 ± 20 µM
HCT116; [7]
  IC50: 5.3 ± 1.3 µM
HCC2998; [8]
  IC50: 10 ± 1 µM
MDA-MB-435; Homo sapiens
  IC50: 10 ± 2 µM
OVCAR1; Homo sapiens
  IC50: 24 ± 1 µM
HOP62; [9]
  IC50: 118 ± 32 µM

## Nc1ccn([C@@H]2O[C@H](CO)[C@@H](O)C2(F)F)c(=O)n1 [Gemcitabine, 2′-deoxy-2′,2′-difluorocytidine]
IGROV1; [3]
  IC50: 0.02 ± 0.004 µM
MCF7; Homo sapiens
  IC50: 0.01 ± 0.002 µM
HT29; [4]
  IC50: 0.015 ± 0.003 µM
HOP92; [5]
  IC50: 0.02 ± 0.004 µM
COLO205; [6]
  IC50: 0.2 ± 0.1 µM
HCT116; [7]
  IC50: 0.05 ± 0.01 µM
HCC2998; [8]
  IC50: 0.01 ± 0.002 µM
MDA-MB-435; Homo sapiens
  IC50: 0.04 ± 0.008 µM
OVCAR1; Homo sapiens
  IC50: 1.2 ± 0.2 µM
HOP62; [9]
  IC50: 0.01 ± 0.002 µM
HCT116 cancer cell line; [2]
  Interaction with CYC682 (isobologram): synergistic
COLO205 cancer cell line; [2]
  Interaction with CYC682 (isobologram): synergistic
NSCLC cell line H1299; H1299, concomitant treatment
  Interaction with CNDAC at ED50 (in words): synergy
NSCLC cell line H1299; combination with CNDAC, regime not specified
  Interaction with CNDAC (in words), summary of Table 3: synergistic drug interactions
NSCLC cell line H1299; [10]
  Combination Index at ED50, Concomitant: 0.65
  Combination Index at ED75, Concomitant: 1.83
  Combination Index at ED90, Concomitant: 6.11
